Target: T1, KDM2A (Homo sapiens, UniProt Q9Y2K7)
T1 construct: isolated enzyme
T1 sequence (Q9Y2K7 1-517 limits assumed): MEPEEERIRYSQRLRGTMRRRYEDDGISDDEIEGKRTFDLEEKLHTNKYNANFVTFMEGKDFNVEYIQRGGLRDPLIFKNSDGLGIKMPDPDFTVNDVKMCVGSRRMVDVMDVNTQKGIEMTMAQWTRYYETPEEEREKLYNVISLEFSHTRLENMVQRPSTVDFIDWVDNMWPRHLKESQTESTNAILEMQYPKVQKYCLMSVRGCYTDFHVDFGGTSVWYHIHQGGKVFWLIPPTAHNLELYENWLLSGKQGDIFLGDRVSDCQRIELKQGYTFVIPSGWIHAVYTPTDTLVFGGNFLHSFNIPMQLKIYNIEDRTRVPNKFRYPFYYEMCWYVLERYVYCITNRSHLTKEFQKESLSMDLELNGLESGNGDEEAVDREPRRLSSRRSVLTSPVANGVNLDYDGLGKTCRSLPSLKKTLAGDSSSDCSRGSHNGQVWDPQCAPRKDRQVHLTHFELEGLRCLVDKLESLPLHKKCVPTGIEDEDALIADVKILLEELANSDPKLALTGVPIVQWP
Experiment: demethylase activity assay (RapidFire MS / AlphaScreen)
Type: biochemical
Settings: not competitive with 2-OG or peptide substrate

IC50: 160 nM
SMILES: CC(=O)N1c2ccccc2[C@@](C#N)(c2ccccc2)[C@@H]1c1cncc(CCCCCCCN2CCCC2)c1 [(S,S)-6]

— article PMC5725665, “Discovery of a Highly Selective Cell‐Active Inhibitor of the Histone Lysine Demethylases KDM2/7” (Angewandte Chemie (International Ed. in English), 2017)
